Legend:
tumor cells = conditions: cited from earlier work
normal cells = conditions: cited from earlier work
NMPRTase = target: T1, NMPRTase (Homo sapiens, UniProt P43490); test: NMPRTase coupled-enzyme spectrometric assay; assay type: biochemical; conditions: FIG. 5; Vmax=kcat([E]-[I])
T1 construct: Full-length human and murine NMPRTase (residues 1-491) was sub-cloned into the pET26b vector; made in house; host or cells: E. coli (pET26b vector)
Method: The catalytic activity of NMPRTase was determined using a coupled-enzyme spectrometric assay, following a published protocol (Revollo et al., 2004). Briefly, the NMN product of NMPRTase is converted to NAD^+ with the enzyme NMN/NAMN adenylyltransferase (NMNAT), and NAD^+ is then reduced to NADH by alcohol dehydrogenase (Sigma) using ethanol as the substrate. By monitoring the appearance of NADH at 340 nm, the activity of NMPRTase can be determined. […] The reaction buffer contains 50 mM Tris (pH 7.5), 0.4 mM PRPP, various concentrations of NM (or NA), 2.5 mM ATP, 12 mM MgCl2, 1.5% ethanol, 10 mM semicarbazide (to remove the acetaldehyde product of ethanol oxidation), 0.02% BSA, 10 mg/ml NMNAT, 30 mg/ml ADH, and 0.5 mM NMPRTase. The reactions are carried out at room temperature.

NAPRTases = conditions: cited from earlier work
renal cell carcinoma = conditions: mouse renal cell carcinoma model; cited from earlier work

T1 sequence (P43490 whole entry, the tested form may be a part): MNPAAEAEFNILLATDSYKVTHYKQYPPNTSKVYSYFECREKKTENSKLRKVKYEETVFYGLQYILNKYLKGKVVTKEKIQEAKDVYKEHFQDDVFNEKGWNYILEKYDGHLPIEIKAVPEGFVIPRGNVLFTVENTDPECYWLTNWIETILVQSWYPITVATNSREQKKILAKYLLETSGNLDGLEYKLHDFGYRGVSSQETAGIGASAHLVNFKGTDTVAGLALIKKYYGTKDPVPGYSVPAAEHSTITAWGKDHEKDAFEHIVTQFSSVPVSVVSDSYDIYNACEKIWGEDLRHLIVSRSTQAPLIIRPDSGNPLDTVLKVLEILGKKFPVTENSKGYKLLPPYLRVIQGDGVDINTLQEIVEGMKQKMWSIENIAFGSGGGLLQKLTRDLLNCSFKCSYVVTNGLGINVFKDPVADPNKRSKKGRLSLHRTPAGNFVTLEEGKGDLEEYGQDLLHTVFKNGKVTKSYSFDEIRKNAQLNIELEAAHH

O=C(/C=C/c1cccnc1)NCCCCC1CCN(C(=O)c2ccccc2)CC1 [FK866, (E)-N-[4-(1-benzoylpiperidin-4-yl)butyl]-3-(pyridin-3-yl)acrylamide]
apoptosis (tumor cells): induces apoptosis
intracellular NAD+ levels (tumor cells): depletion of intracellular NAD^+ levels
toxicity to normal cells (normal cells): little toxicity
relationship between FK866 concentration and Vmax (NMPRTase): linear relationship
inhibition of NAPRTases (NAPRTases): does not inhibit
anti-angiogenic effects (renal cell carcinoma): potent anti-angiogenic effects

— patent US20080020413A1, “CRYSTALLINE VISFATIN AND METHODS THEREFOR” (Columbia University, priority 2006, published 2008)
